pIC50: −log10 of the molar value.
Assays:
[1] = target: Phosphatidylinositol 4,5-bisphosphate 3-kinase catalytic subunit alpha isoform (Homo sapiens, UniProt P42336); experiment: Inhibition of PI3Kalpha by luminescent kinase glo assay; settings: for inhibition: concentration not given here
[2] = target: Phosphatidylinositol 4,5-bisphosphate 3-kinase catalytic subunit gamma isoform (Homo sapiens, UniProt P48736); experiment: Inhibition of PI3Kgamma by luminescent kinase glo assay
[3] = Selectivity ratio of IC50 for PI3Kgamma to IC50 for PI3Kalpha

Phosphatidylinositol 4,5-bisphosphate 3-kinase catalytic subunit alpha isoform, sequence (P42336 whole entry, canonical isoform): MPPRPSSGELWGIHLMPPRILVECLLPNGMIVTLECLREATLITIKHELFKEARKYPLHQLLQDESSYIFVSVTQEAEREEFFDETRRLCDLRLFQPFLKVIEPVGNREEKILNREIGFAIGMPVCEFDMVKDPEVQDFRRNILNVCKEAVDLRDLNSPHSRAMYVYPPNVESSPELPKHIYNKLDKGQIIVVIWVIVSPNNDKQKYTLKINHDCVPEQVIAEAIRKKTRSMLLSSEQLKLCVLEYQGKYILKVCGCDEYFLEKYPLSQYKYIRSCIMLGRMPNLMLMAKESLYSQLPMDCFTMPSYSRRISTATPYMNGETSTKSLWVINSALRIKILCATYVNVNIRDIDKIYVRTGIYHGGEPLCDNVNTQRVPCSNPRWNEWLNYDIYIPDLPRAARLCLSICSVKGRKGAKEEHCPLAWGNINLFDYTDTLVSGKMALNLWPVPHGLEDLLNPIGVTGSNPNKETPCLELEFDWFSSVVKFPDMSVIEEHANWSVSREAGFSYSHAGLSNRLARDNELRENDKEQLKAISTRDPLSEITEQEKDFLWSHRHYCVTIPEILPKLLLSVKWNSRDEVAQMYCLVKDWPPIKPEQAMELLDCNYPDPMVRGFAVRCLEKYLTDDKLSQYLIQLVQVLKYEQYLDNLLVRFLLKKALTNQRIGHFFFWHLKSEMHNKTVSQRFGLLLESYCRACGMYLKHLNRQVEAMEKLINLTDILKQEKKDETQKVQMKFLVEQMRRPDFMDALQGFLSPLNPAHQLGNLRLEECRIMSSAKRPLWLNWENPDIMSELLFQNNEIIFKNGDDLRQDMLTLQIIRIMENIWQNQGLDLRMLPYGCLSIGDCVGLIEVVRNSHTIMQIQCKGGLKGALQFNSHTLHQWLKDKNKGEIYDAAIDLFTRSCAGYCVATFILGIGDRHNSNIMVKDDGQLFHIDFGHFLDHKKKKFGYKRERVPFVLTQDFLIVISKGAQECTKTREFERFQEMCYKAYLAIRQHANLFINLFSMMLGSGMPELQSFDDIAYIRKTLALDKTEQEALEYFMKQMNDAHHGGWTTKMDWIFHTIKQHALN
Phosphatidylinositol 4,5-bisphosphate 3-kinase catalytic subunit gamma isoform, sequence (P48736 whole entry, canonical isoform): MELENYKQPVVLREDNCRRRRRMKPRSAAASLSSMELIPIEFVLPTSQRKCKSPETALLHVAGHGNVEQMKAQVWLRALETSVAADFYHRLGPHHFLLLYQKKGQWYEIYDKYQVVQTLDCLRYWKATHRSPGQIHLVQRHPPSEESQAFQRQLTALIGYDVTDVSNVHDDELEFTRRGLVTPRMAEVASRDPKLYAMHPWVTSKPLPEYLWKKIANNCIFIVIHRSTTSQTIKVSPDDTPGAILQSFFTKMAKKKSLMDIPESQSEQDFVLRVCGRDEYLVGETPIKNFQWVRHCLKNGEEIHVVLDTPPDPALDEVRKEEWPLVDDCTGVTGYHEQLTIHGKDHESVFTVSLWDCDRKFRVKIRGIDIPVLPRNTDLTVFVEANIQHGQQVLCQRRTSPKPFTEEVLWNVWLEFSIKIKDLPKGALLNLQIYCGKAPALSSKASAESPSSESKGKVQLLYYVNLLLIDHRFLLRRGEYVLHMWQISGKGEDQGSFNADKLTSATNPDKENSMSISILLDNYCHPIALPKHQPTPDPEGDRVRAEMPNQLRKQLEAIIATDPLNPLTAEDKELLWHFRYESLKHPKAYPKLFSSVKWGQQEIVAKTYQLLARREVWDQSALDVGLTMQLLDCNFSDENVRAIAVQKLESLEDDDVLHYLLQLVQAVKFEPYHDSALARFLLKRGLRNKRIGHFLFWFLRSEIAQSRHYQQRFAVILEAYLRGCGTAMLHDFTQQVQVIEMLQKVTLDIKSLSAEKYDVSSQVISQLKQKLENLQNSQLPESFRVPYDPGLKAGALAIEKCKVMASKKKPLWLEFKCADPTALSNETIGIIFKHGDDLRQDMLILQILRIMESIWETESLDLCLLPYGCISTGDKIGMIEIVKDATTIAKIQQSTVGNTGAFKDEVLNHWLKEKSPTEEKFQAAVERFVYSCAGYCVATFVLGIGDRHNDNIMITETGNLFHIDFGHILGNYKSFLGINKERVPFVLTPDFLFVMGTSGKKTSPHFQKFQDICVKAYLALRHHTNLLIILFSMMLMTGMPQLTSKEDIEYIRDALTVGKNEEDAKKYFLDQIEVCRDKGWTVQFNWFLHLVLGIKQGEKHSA

Compound `Cc1cc(F)ccc1OCc1cc(C(=O)NO)cc(N2CCOCC2)n1` has a pIC50 [1] of at most 5.00 and a pIC50 [2] of 5.00.

`Cc1cc(F)ccc1NCc1cc(C(=O)O)cc(-c2ccncc2)n1` gave a pIC50 [1] of 4.54 and a pIC50 [2] of 4.38.

`CCOC(=O)c1ccnc(N2CCOCC2)c1` gave a pIC50 [1] of 4.29 and a pIC50 [2] of under 4.00.

Work on `Cc1cc(F)ccc1NCc1cc(C(=O)O)cc(-c2cccc(O)c2)n1` yielded a pIC50 [1] of 4.00 and a pIC50 [2] of 4.38.

In the case of `Cc1cc(F)ccc1NCc1cc(C(=O)O)cc(-c2ccc(O)cc2)n1`, the pIC50 [1] was 4.00 and the pIC50 [2] was 4.00.

In the case of `Cc1cc(F)ccc1OCc1cc(C(=O)NCCO)cc(N2CCOCC2)n1`, the pIC50 [1] was at most 4.30 and the pIC50 [2] was at most 4.30.

Compound `Cc1cc(F)ccc1OCc1cc(C(=O)O)cc(N2CCOCC2)n1` has a pIC50 [1] of 5.15, a pIC50 [2] of 4.64 and a Ratio IC50 [3] of 6.

`Cc1cc(F)ccc1NCc1cc(C(=O)O)cc(N(CCO)CCO)n1` gave a pIC50 [1] of under 4.00 and a pIC50 [2] of under 4.00.

With `Cc1cc(F)ccc1NCc1cc(C(=O)O)cc(N(C)CCO)n1` the pIC50 [1] was under 4.00 and the pIC50 [2] was under 4.00.

In the case of `Cc1cc(F)ccc1NCc1cc(C(=O)N2CCC(O)C2)cc(N2CCC(O)C2)n1` (stereo not drawn), the pIC50 [1] was under 4.00 and the pIC50 [2] was under 4.00.

Work on `Cc1cc(F)ccc1NCc1cc(C=O)cc(N2CCOCC2)n1` yielded a pIC50 [1] of 4.00 and a pIC50 [2] of 4.00.

With `Cc1cc(F)ccc1NCc1cc(C(=O)O)cc(-c2ccccc2O)n1` the pIC50 [1] was under 4.00 and the pIC50 [2] was under 4.00.

`O=C(O)c1ccnc(N2CCOCC2)c1` gave a pIC50 [1] of 4.44 and a pIC50 [2] of under 4.00.

Work on `CCOC(=O)c1cc(CNc2ccc(F)cc2C)nc(N2CCOCC2)c1` yielded an inhibition [1] of under 10% and a pIC50 [2] of over 5.00.

Work on `Cc1cc(F)ccc1NCc1cc(C(=O)O)cc(N2CCNCC2)n1` yielded a pIC50 [1] of under 4.00 and a pIC50 [2] of under 4.00.

`Cc1cc(F)ccc1NCc1cc(C(=O)O)cc(Cl)n1` gave a pIC50 [1] of under 4.00 and a pIC50 [2] of under 4.00.

With `Cc1cc(F)ccc1NCc1cc(C(=O)O)cc(N2CCOCC2)n1` the pIC50 [1] was 5.30 and the pIC50 [2] was 4.47.

Work on `Cc1cc(F)ccc1NCc1cc(C(=O)O)cc(N2CCC(O)C2)n1` (stereo not drawn) yielded a pIC50 [1] of under 4.00 and a pIC50 [2] of under 4.00.

Compound `Cc1cc(F)ccc1NCc1cc(C(=O)O)cc(N2CCCC2)n1` has an inhibition [1] of under 10% and a pIC50 [2] of under 4.00.

Work on `Cc1cc(F)ccc1NCc1cc(C(=O)NCCO)cc(NCCO)n1` yielded a pIC50 [1] of under 4.00 and a pIC50 [2] of under 4.00.

For `Cc1cc(F)ccc1NCc1cc(C(=O)O)cc(N2CCCCC2)n1`, the inhibition [1] was under 10% and the pIC50 [2] was under 4.00.

With `Cc1cc(F)ccc1NCc1cc(C(=O)O)cc(-c2cccnc2)n1` the pIC50 [1] was under 4.00 and the pIC50 [2] was under 4.00.

In the case of `Cc1cc(F)ccc1NCc1cc(C(=O)O)cc(NCCO)n1`, the pIC50 [1] was 4.00 and the pIC50 [2] was under 4.00.

`Cc1cc(F)ccc1OCc1cc(C(N)=O)cc(N2CCOCC2)n1` showed a pIC50 [1] of under 5.00 and a pIC50 [2] of over 5.00.

`Cc1cc(F)ccc1NCc1cc(CO)cc(N2CCOCC2)n1` gave a pIC50 [1] of 4.70 and a pIC50 [2] of at most 4.00.

In the case of `CCOC(=O)c1cc(COc2ccc(F)cc2C)nc(N2CCOCC2)c1`, the inhibition [1] was under 10% and the pIC50 [2] was over 5.00.

Source: ChEMBL document CHEMBL1153990, “Exploring the PI3K alpha and gamma binding sites with 2,6-disubstituted isonicotinic derivatives” (Bioorg Med Chem Lett, 2009)
